# From patent US20030170249A1, “Vaccines directed to cancer-associated carbohydrate antigens” (priority 1999, published 2003)
# Like-named read-outs stand apart in the source and are kept apart here. Where no end group is shown, it is not given here.
# Key:
# MHC Class I Kb / Db = details: peptides binding MHC Class I Kb; cited from earlier work
# [1] = tested on: B16 melanoma cells of clones F-1 or F-10; test: Active immunization with GM3 lactone, B16 melanoma development; assay type: in vivo; details: immunized BALB/c mice
# Protocol: Ten BALB/c mice were immunized with native GM3 or GM3 lactone coated on acid-treated Salmonella minnesota. Immunization was carried out by intravenous injection of 200 μl of the GM3 or GM3 lactone preparation once per week for 4 weeks. Subsequently, 1.0×10^5 B16 melanoma cells of clones F-1 or F-10, were subcutaneously injected into the back of the mice and tumor growth was observed after 20 days. As controls, other glycolipids, such as paragloboside coated on acid-treated Salmonella minnesota, and Salmonella minnesota alone, were used in the same amounts as discussed above.
# In the table, the numbers indicate the number of animal which died over the total number of animals immunized.
# [2] = cited from earlier work
# TA3Ha cells [3] = test: Tumor growth suppression by vaccination with Tn antigen (A-OSM or A-BSM), Ribi adjuvant and cyclophosphamide; assay type: in vivo, mouse; details: CP only; 700 TA3Ha cells i.p.
# Protocol: Tumor growth suppression was tested using A-OSM or A-BSM with Ribi adjuvant, which is essentially composed of trehalose dimycolate and monophosphoryl Lipid A, the effective component of mycobacteria known to stimulate immune response of T as well as B cells (Ribi et al., Clin. Immunol. Newsletter 6:33-36, 1985). A-OSM and A-BSM were produced by treatment with neuraminidase as described above. […] For example, 100 μg of A-OSM or A-BSM were mixed with 500 μg of complete Ribi adjuvant and injected subcutaneously at day −7 (i.e., 7 days before tumor cell inoculation). On day 0, 700 TA3Ha cells were injected intraperitoneally. On day 1, CP (75 mg/kg) was injected intraperitoneally. On days 2, 5, 12, and 19, 100 μg antigen/500 μg Ribi adjuvant complex was injected subcutaneously. Another experimental group was injected with CP-Ribi on days 2, 5, 12, and 19, respectively.
# TA3Ha cells [4] = test: Synthetic Tn-KLH/Ribi tumor vaccine, TA3Ha challenge i.p.; assay type: in vivo, mouse; details: control groups; TA3Ha i.p. day 0, CP day 1
# Protocol: Mice were preimmunized at day −7 with 50 μg of synthetic Tn/Ribi, s.c. and were challenged with TA3Ha cells, i.p. at day 0.
# Mice were immunized with 30 μg of monomeric Tn-KLH/Ribi or dimeric Tn-KLH/Ribi on days −7, 2, 5, 12 and 19.
# V alpha 14 TCR = details: cited from earlier work
# V alpha 14 NKT cells = details: cited from earlier work
# [5] = tested on: B16 melanoma and mouse colonic carcinoma Colon 26; details: mice bearing various tumors; cited from earlier work
# antibody to Le^y = details: cited from earlier work
molecule,measurement,setting,value
Di-Gal (Galα1-4Gal) oligosaccharide linked to N or P of FAPGNYPAL: di-Gal linked to MHC Class I Kb binding peptide FAPGNYPAL (also: di-Gal (Galα1-4Gal) linked to N or P),cytotoxic T cell response to the oligosaccharide residue,MHC Class I Kb / Db,elicited a cytotoxic T cell response
GM3 lactone,tumor growth reduced,[1],reduced
same,stability of the structure,[2]; acidic to neutral pH,relatively stable
same,stability of the structure,[2]; alkaline pH,unstable
Di-Gal (Galα1-4Gal) oligosaccharide linked to V or Q of RGYVYQGL: di-Gal linked to MHC Class I Kb binding peptide RGYVYQGL (also: di-Gal (Galα1-4Gal) linked to V or Q),cytotoxic T cell response to the oligosaccharide residue,MHC Class I Kb / Db,elicited a cytotoxic T cell response
"O=P1(N(CCCl)CCCl)NCCCO1 (stereo not shown) [CP, Cyclophosphamide]",most animals had died by,TA3Ha cells [3],20 to 30 days
same,tumor growth suppression,TA3Ha cells [3],some tumor growth suppression
same,survival of tumor challenge,TA3Ha cells [4],did not survive tumor challenge
GM3,tumor growth reduced,[1],not
CCCCCCCCCCCCCCCCCCCCCCCCCC(=O)N[C@@H](CO[C@H]1O[C@H](CO)[C@H](O)[C@H](O)[C@H]1O)[C@H](O)[C@H](O)CCCCCCCCCCCCCC [alpha-GalCer],binding to V alpha 14 TCR,V alpha 14 TCR,bind V alpha 14 TCR
same,proliferation of V alpha 14 NKT cells,V alpha 14 NKT cells,stimulate proliferation
same,tumor growth and metastasis,[5],abrogated tumor growth and metastasis
APWLYGPA [peptide selected from phage display library with antibody to Le^y],binding of the antibody to Le^y,antibody to Le^y,inhibited binding
